From PMC12873548, “D-amino acid substitution and cyclization enhance the stability and antimicrobial activity of arginine-rich peptides” (Microbiology, 2026)
Converted amounts (≈) assume the structure as drawn. Non-standard residues stand in square brackets, D forms with d. Residues, ends and D or L forms follow the SMILES beside them. *: point of attachment. NHhexadecyl = CCCCCCCCCCCCCCCCN*

Tests used:
S. aureus = assay: Intracellular ROS, DCFH-DA; assay type: cell-based, Staphylococcus aureus; conditions: peptides at MIC, 1/2× MIC, 1/4× MIC, 4 h, 37 °C
Description: (§1) Total reactive oxygen species (ROS) was measured using an oxidation-sensitive fluorescent dye, 2′,7′-dichlorodihydrofluorescein diacetate (DCFH-DA). For this assay, E. coli and S. aureus cultures were adjusted to an OD600 of 0.3 in MH broth and exposed to peptides at MIC, 1/2× MIC and 1/4× MIC, or to positive control (5 mM H2O2) for 4 h at 37 °C. Cells were centrifuged at 4,000 r.p.m. for 10 min at 4 °C and resuspended in PBS containing 10 µM DCFH-DA. The suspension was incubated under the same conditions for 30 min. Finally, cells were washed twice with PBS, and 150 µl aliquots were transferred to 96-well plates. Oxidized DCF products were detected using a Tecan Spark® microplate reader with excitation at 485 nm and emission at 530 nm. Additionally, 10 µl of E. coli cells incubated with D-R4F4 at MIC, 1/2×MIC and 1/4×MIC was collected for imaging using an All-in-One Fluorescence Microscope (Keyence, Japan).

S. aureus ATCC 12600 = assay: Membrane integrity, PI uptake; assay type: cell-based, Staphylococcus aureus; conditions: S. aureus ATCC 12600, 5 µg ml−1 PI, 1 h
Description: (§2) Propidium iodide (PI) uptake was used to assess the permeabilization of the bacterial membrane upon incubation with peptides. E. coli and S. aureus cells, adjusted to an OD600 of 0.5, were placed into a 96-well plate containing 5 mM HEPES buffer (pH 7.4, supplemented with 5 mM glucose) and incubated with 5 µg ml^−1 PI for 15 min. Afterwards, different peptide concentrations were added, and PI uptake was rapidly measured every 10 min over a 1 h period using a Tecan Spark® microplate reader (λex=515 nm, λem=620 nm).

E. coli ATCC 25922 [1] = assay: Cytoplasmic membrane depolarization, DiSC3(5); assay type: cell-based, Escherichia coli; conditions: peptide at 2× MIC or 1,000 µM, positive control Triton X-100
Description: The dye 3,3′-dipropylthiadicarbocyanine iodide DiSC3(5) was employed to evaluate perturbation of the bacterial membrane by our designed arginine-rich peptides. For this, a black 96-well microtiter plate containing 150 µl E. coli cells (OD600=0.5) in MH broth per well was incubated with 0.5 µM DiSC3(5) in 5 mM HEPES buffer (pH 7.4, supplemented with 5 mM glucose and 0.1 M KCl) for 15 min to allow for fluorescence quenching. Then, 2× MIC or 1 mM peptide was added, and changes in fluorescence were monitored in real-time (λex=622 nm, λem=670 nm) using a microplate reader.

E. coli = assay: Intracellular ROS, DCFH-DA; assay type: cell-based, Escherichia coli; conditions: peptides at MIC, 1/2× MIC, 1/4× MIC, 4 h, 37 °C
Description: as §1

E. coli ATCC 25922 [2] = assay: Membrane integrity, PI uptake; assay type: cell-based, Escherichia coli; conditions: E. coli ATCC 25922, 5 µg ml−1 PI, 1 h
Description: as §2

[3] = target: T1, Sequencing Grade Modified Trypsin (Sus scrofa, UniProt P00761); assay: Stability with trypsin by LC-MS; assay type: in vitro ADME; conditions: 5 µM SGMT trypsin, 50 mM Tris-HCl, 1 mM CaCl2, pH 7.6, 24 h, 37 °C; read-out LC-MS (ESI)
T1 construct: purchased Promega
Description: (§3) The antimicrobial activity and structural stability of arginine-rich peptides were evaluated in the presence of human serum (20% and 50 %) and 5 µM Sequencing Grade Modified Trypsin (SGMT, Promega). Briefly, fresh human blood was collected in EDTA tubes and allowed to clot at room temperature for 1 h. Serum was then collected following centrifugation at 2,000 r.p.m. for 10 min at 4 °C. Peptides were incubated with 20%, 50% human serum and 5 µM SGMT in 50 mM Tris-HCl buffer (1 mM CaCl₂, pH 7.6) for 24 h at 37 °C. After the incubation period, the solutions were further incubated with E. coli (ATCC 25922 and O157:H7), P. aeruginosa (PA01, NCTC13437) and S. aureus (ATCC12600), and the MIC was assessed as described in the ‘Antibacterial assessment’ section. Additionally, the samples were analysed using electrospray ionization MS to monitor structural changes based on the molecular weight of the peptides.

S. aureus (ATCC12600) = assay type: cell-based, Staphylococcus aureus
Description: The MIC of arginine-based peptides was assessed using the microbroth dilution approach. Our in vitro screening included a panel of Gram-negative bacteria, Escherichia coli (ATCC 25922 and enterohaemorrhagic O157:H7) and Pseudomonas aeruginosa (PA01 and the drug-resistant strain NCTC 13437), and Gram-positive bacteria (Staphylococcus aureus ATCC 12600). Five-millilitre overnight cultures in Lysogeny broth, prepared from single isolated colonies, were diluted to 5×10^6 c.f.u. ml^−1 mid-log phase in Mueller–Hinton (MH) broth. Next, peptide concentrations (0 to 1 mM) were serially diluted twofold in 96-well plates and incubated overnight at 37 °C with the tested bacterial strains. In each case, the MIC was determined as the lowest peptide concentration at which no detectable bacterial growth was observed, employing an absorbance-based assay using a Tecan Spark® multimode plate reader. Subsequently, 10 µl aliquots from each peptide dilution were transferred to MH agar (1.5%) plates to determine the minimum bactericidal concentration (MBC) which was assessed by establishing at which concentration no visible growth of bacteria (assessed via colony formation) on the plate was observed.

[4] = Stability in human serum by LC-MS; assay type: in vitro ADME; conditions: human serum (20% and 50%), 24 h, 37 °C; read-out LC-MS (ESI)
Description: as §3

T1 sequence (P00761 9-231): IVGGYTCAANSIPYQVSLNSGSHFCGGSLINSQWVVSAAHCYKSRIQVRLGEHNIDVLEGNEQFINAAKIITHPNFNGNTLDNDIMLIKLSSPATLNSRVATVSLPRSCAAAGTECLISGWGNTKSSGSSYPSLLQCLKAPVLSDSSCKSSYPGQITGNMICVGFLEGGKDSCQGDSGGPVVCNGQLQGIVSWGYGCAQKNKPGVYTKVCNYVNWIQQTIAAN

SMILES	Intracellular ROS levels (S. aureus)	PI uptake, membrane integrity (S. aureus ATCC 12600)	Cytoplasmic membrane depolarization, DiSC3(5) fluorescence (E. coli ATCC 25922 [1])	Intracellular ROS levels (E. coli)	PI uptake, membrane integrity (E. coli ATCC 25922 [2])	Stability with trypsin (LC chromatogram and mass spectrum) [3]	MBC (S. aureus (ATCC12600); ATCC12600) [µM]	MIC (S. aureus (ATCC12600); ATCC12600, 24 h) [µM]	Stability with serum proteases (LC chromatogram and mass spectrum) [4]
CCCCCCCCCCCCCCCCNC(=O)[C@H](CCCNC(=N)N)NC(=O)[C@H](CCCNC(=N)N)NC(=O)[C@H](CCCNC(=N)N)NC(=O)[C@@H](N)CCCNC(=N)N [Peptide R4-C16] (H-RRRR-NHhexadecyl; N-terminus and C-terminus assumed)	highest modulation of ROS levels	membrane-disruptive activity	significantly higher fluorescence levels compared to the positive control	highest modulation of ROS levels	membrane-disruptive activity	–	–	–	–
N=C(N)NCCC[C@@H](N)C(=O)N[C@@H](CCCNC(=N)N)C(=O)N[C@H](CCCNC(=N)N)C(=O)N[C@@H](CCCNC(=N)N)C(=O)N[C@H](Cc1ccccc1)C(=O)N[C@@H](Cc1ccccc1)C(=O)N[C@H](Cc1ccccc1)C(=O)N[C@@H](Cc1ccccc1)C(=O)O [D-R4F4] (H-[dR]R[dR]R[dF]F[dF]F-OH)	–	–	–	–	–	appeared at the same retention time in both the absence and presence of proteases	250 (≈ 308 µg/mL)	125 (≈ 154 µg/mL)	appeared at the same retention time in both the absence and presence of proteases
